Assay [1] deals with T1, nNOS (Rattus norvegicus, UniProt P29476).
T1 construct: endogenous in cells; host or cells: rat GH3 pituitary cells; enzyme purified on 2',5'-ADP-agarose and calmodulin-Affi Gel 15 agarose
Description: NO formation assay (oxyhemoglobin to methemoglobin), nNOS. It is filed as biochemical. The conditions noted are these: multisite, positively cooperative inhibition of nNOS NO formation. The procedure: (§1) Neuronal NOS was purified from rat GH3 pituitary cells grown in Ham's F-10 supplemented with 12.5% horse serum and 3% fetal bovine serum. Cells were homogenized in 5 volumes of 50 mM Mops, pH 7.4, 1 mM EGTA, 1 mM DTT, 100 mM NaCl, 0.5% CHAPSO, 50 μM BH4, 100 μM leupeptin, and 10 μM E64. A postmitochondrial supernatant fraction was generated by centrifugation and was affinity-purified on 2′,5′ADP-agarose as reported previously (Wolff, D. J. and Datto, G. (1992) Biochem. J. 284:201-206). The affinity-purified proteins were eluted with 50 mM Mops, pH 7.4, 1 mM EGTA, 1 mM DTT, 5 mM NADPH, 0.1% CHAPSO, 150 mM NaCl, 50 μM BH4, 100 μM leupeptin, and 10 μM E64. […] Fractions containing nNOS as determined by citrulline formation assay were concentrated with a Centriprep 30 (Amicon).
Nitric oxide production over time was measured spectrophotometrically at 401 nm by the conversion of oxyhemoglobin to methemoglobin (Noack, E. et al. (1992) Neuroprotocols 1:133-139). […] Methemoglobin formation was monitored against a reference cuvette containing complete reaction mixture without enzyme. NO production was calculated using an extinction coefficient of 38 mM^−1 cm^−1 (Noack et al.,1992).

The target of assay [2] is T1, nNOS. Description: Cytochrome c reductase assay of nNOS. Conditions: at concentrations as high as 300 μM. It is filed as biochemical. The procedure:
Neuronal NOS was purified from rat GH3 pituitary cells grown in Ham's F-10 supplemented with 12.5% horse serum and 3% fetal bovine serum. Cells were homogenized in 5 volumes of 50 mM Mops, pH 7.4, 1 mM EGTA, 1 mM DTT, 100 mM NaCl, 0.5% CHAPSO, 50 μM BH4, 100 μM leupeptin, and 10 μM E64. A postmitochondrial supernatant fraction was generated by centrifugation and was affinity-purified on 2′,5′ADP-agarose as reported previously (Wolff, D. J. and Datto, G. (1992) Biochem. J. 284:201-206). The affinity-purified proteins were eluted with 50 mM Mops, pH 7.4, 1 mM EGTA, 1 mM DTT, 5 mM NADPH, 0.1% CHAPSO, 150 mM NaCl, 50 μM BH4, 100 μM leupeptin, and 10 μM E64. The eluate was adjusted to contain 2.5 mM Ca^2+ and was adsorbed to a calmodulin-Affi Gel 15 agarose column equilibrated in 50 mM Mops, 1 mM EGTA, 2.5 mM Ca^2+ 0.1% CHAPSO, 150 mM NaCl, 25 μM arginine, 1 mM DTT, 50 μM BH4, 100 μM leupeptin, and 10 μM E64. […] Fractions containing nNOS as determined by citrulline formation assay were concentrated with a Centriprep 30 (Amicon).
The cytochrome c reductase activity of nNOS was determined as described previously, (Cooper et al. (2000) Arch. Biochem. Biophys. 375:183-194) in the presence of 1 mM EGTA, 2 mM Ca^2+, and 10 μg/ml CaM. An extinction coefficient of 21 mM^−1 cm^−1 (22) was used to quantify cytochrome c reduction.

Assay [3] deals with T1, nNOS. Description: Citrulline formation assay, nNOS. It is filed as biochemical. Conditions: read-out: IC50 for Inhibition of Citrulline Formation. The protocol: as §1
Citrulline formation by NOS isoforms was measured in 150 μL reaction mixtures containing 30 mM Hepes, pH 7.5, 1 mM DTT, 120 nM L-[2,3-^3H]-arginine without or with unlabeled arginine, 1 mM EGTA, 0.85 mM Ca^2+ (when present), 6 μM CaM (calmodulin, when present), 100 μM NADPH, and 300 μM BH4. Incubations were initiated by the addition of enzyme and reaction mixtures incubated for 30 min at 30° C. in duplicate and reactions stopped and analyzed as described by Wolff and Datto (Wolff and Datto, 1992). […]

A further assay concerns the target T2, iNOS (Mus musculus, UniProt P29477).
T2 construct: Expression of iNOS was induced with 5 μg/mL of Escherichia coli lipopolysaccharide and 50 units/mL of mouse γ-interferon; endogenous in cells; host or cells: RAW 264.7 macrophages induced with LPS and interferon-gamma; enzyme purified on 2',5'-ADP-agarose and DEAE-cellulose
Description: Citrulline formation assay, iNOS. It is filed as biochemical, murine. Conditions: read-out: IC50 for Inhibition of Citrulline Formation. The protocol: Cytokine-inducible NOS was purified from murine RAW 264.7 macrophages grown in DMEM/Hepes, pH 7.5, supplemented with 10% fetal bovine serum. Expression of iNOS was induced with 5 μg/mL of Escherichia coli lipopolysaccharide and 50 units/mL of mouse γ-interferon. Homogeneous preparation of the iNOS was obtained through sequential purification on 2′,5′-ADP-agarose and DEAE-cellulose as described previously (Bryk, R. and Wolff, R. (1998) Biochemistry 37:4844-4852). Purified iNOS was about 95% pure as judged by a Coomassie-stained SDS-PAGE.
(§2) Citrulline formation by NOS isoforms was measured in 150 μL reaction mixtures containing 30 mM Hepes, pH 7.5, 1 mM DTT, 120 nM L-[2,3-^3H]-arginine without or with unlabeled arginine, 1 mM EGTA, 0.85 mM Ca^2+ (when present), 6 μM CaM (calmodulin, when present), 100 μM NADPH, and 300 μM BH4. Incubations were initiated by the addition of enzyme and reaction mixtures incubated for 30 min at 30° C. in duplicate and reactions stopped and analyzed as described by Wolff and Datto (Wolff and Datto, 1992). When citrulline formation was measured as a function of CaM concentration 1.5 mM Ca^2+ was employed in the assay Assay of NADPH-Oxidase Activity.

For assay [4], the target named is T1, nNOS. Description: NADPH-oxidase activity (NADPH consumption) of nNOS. It is filed as biochemical. The protocol: Neuronal NOS was purified from rat GH3 pituitary cells grown in Ham's F-10 supplemented with 12.5% horse serum and 3% fetal bovine serum. Cells were homogenized in 5 volumes of 50 mM Mops, pH 7.4, 1 mM EGTA, 1 mM DTT, 100 mM NaCl, 0.5% CHAPSO, 50 μM BH4, 100 μM leupeptin, and 10 μM E64. A postmitochondrial supernatant fraction was generated by centrifugation and was affinity-purified on 2′,5′ADP-agarose as reported previously (Wolff, D. J. and Datto, G. (1992) Biochem. J. 284:201-206). The affinity-purified proteins were eluted with 50 mM Mops, pH 7.4, 1 mM EGTA, 1 mM DTT, 5 mM NADPH, 0.1% CHAPSO, 150 mM NaCl, 50 μM BH4, 100 μM leupeptin, and 10 μM E64. The eluate was adjusted to contain 2.5 mM Ca^2+ and was adsorbed to a calmodulin-Affi Gel 15 agarose column equilibrated in 50 mM Mops, 1 mM EGTA, 2.5 mM Ca^2+ 0.1% CHAPSO, 150 mM NaCl, 25 μM arginine, 1 mM DTT, 50 μM BH4, 100 μM leupeptin, and 10 μM E64. The column was washed with equilibration buffer containing 500 mM NaCl but without arginine, and nNOS was eluted with equilibration buffer containing 2.5 mM EGTA but without Ca^2+ or arginine. Fractions containing nNOS as determined by citrulline formation assay were concentrated with a Centriprep 30 (Amicon).
Standard reaction mixtures of 1 mL volume in quartz cuvettes contained 50 mM Hepes, pH 7.4, 150 μM NADPH, 6 μM CaM, 1 mM EGTA, 0.85 mM Ca^2+ and 0.15 μM BH4. Reactions were initiated by the addition of nNOS enzyme and NADPH consumption was measured from the change in light absorbance at 340 nm as compared to an identical reference cuvette without enzyme using an extinction coefficient of 6.22 mM^−1 cm^−1.

The target in a further assay is T3, nNOS dimers (Rattus norvegicus, UniProt P29476).
T3 construct: endogenous in cells; host or cells: rat GH3 pituitary cells
Description: Sucrose density gradient centrifugation of nNOS. The conditions noted are these: fully inhibitory concentrations. The protocol: Samples of nNOS were either unadjusted (control) or were adjusted to 50 μM C3-tris-malonyl-C60-fullerene and were applied to a 5-20% sucrose gradient containing 50 mM Mops, pH 7.4, 150 mM NaCl, 1 mM EGTA, 1 mM DTT, 0.3% CHAPSO, and 10 μM BH4, either without (control) or containing 50 μM C3-tris-malonyl-C60-fullerene. Gradients were run at 35,000 rpm for 18 h at 4° C. in an L5-L5 Beckman Ultracentrifuge using an SW41 rotor. Fractions (375 μL) were collected using an ISCO density gradient fractionator, Model 185. The fractions from the gradient were kept on ice and portions were assayed for cytochrome c reductase activity (measures both monomers and dimers) and citrulline forming activity (measures dimers exclusively). Hemoglobin (4.09S), catalyze (11.9S), and thyoglobulin (19.4S) were run in a separate tube as sedimentation markers.

In another assay the target is T4, eNOS (Bos taurus, UniProt P29473).
T4 construct: Bovine pulmonary arterial endothelial NOS (ENOS) was prepared; from tissue; host or cells: bovine pulmonary arterial endothelium
As to the kind of experiment: Citrulline formation assay, eNOS. It is filed as biochemical, Bovine. The conditions noted are these: read-out: IC50 for Inhibition of Citrulline Formation. The protocol: Bovine pulmonary arterial endothelial NOS (ENOS) was prepared and characterized as described previously (Wolff, D. J. et al. (1994) Arch. Biochem. Biophys. 312:360-366).
as §2

The target of assay [5] is T5, nNOS.
T5 construct: Bovine brain calmodulin was prepared; endogenous in cells; host or cells: rat GH3 pituitary cells (nNOS); bovine brain (calmodulin)
Description: CaM antagonists inhibiting citrulline formation by nNOS at 6 nM CaM. It is filed as biochemical, rat. The conditions noted are these: 30-min incubation.
Description: Cells were homogenized in 5 volumes of 50 mM Mops, pH 7.4, 1 mM EGTA, 1 mM DTT, 100 mM NaCl, 0.5% CHAPSO, 50 μM BH4, 100 μM leupeptin, and 10 μM E64. […] Fractions containing nNOS as determined by citrulline formation assay were concentrated with a Centriprep 30 (Amicon).

Data on three compounds can be found in patent US20030027870A1, “Fullerene derivatives that modulate nitric oxide synthase and clamodulin activity” (priority 2001, published 2003).

T3 sequence (P29476 whole entry): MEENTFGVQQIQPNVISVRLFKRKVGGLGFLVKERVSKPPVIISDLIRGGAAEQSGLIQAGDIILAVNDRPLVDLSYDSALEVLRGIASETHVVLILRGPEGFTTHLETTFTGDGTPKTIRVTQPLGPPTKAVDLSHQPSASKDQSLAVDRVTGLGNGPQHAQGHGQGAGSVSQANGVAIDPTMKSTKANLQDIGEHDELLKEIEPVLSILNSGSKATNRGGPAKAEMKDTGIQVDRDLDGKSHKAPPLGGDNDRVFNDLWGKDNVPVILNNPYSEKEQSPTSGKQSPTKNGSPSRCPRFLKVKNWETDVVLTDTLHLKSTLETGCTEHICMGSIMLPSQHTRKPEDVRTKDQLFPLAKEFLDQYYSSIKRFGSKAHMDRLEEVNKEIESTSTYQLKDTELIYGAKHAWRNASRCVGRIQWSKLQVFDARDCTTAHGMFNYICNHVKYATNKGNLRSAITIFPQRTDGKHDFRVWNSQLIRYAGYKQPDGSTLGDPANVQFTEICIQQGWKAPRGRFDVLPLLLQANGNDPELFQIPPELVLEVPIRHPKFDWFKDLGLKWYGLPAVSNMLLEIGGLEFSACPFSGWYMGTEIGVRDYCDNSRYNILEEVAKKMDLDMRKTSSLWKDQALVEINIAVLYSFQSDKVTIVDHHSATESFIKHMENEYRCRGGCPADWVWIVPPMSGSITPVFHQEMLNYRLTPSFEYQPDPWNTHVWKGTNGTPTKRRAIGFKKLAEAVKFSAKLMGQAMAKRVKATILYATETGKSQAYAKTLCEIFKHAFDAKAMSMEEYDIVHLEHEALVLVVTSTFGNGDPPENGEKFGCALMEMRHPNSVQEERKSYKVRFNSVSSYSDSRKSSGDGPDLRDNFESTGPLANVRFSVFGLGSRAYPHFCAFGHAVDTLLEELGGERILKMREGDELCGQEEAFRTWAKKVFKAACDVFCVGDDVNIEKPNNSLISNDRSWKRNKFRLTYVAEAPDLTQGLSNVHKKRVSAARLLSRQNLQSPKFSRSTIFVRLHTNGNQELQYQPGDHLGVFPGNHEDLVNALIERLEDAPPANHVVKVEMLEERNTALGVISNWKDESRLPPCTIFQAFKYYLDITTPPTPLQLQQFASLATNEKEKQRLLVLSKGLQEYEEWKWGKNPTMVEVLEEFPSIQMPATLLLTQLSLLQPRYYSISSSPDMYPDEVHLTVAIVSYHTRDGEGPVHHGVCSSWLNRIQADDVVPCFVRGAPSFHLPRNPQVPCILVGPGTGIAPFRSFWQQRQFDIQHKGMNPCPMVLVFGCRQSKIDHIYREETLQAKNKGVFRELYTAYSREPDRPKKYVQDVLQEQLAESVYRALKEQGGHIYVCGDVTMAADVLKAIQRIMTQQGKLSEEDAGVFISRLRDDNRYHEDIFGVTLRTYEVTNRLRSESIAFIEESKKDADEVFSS

What is called IC50 is the concentration needed to halve the response being measured. In the case of “1,2:18,36:31,32-Tris(methano)[60] fullerene-61, 61, 62, 62, 63, 63 hexa-carboxylic acid, (e,e,e) C3 symmetry isomer [C3-Tris malonyl adduct diacid]”, at nNOS [1], the “Hill coefficient of inhibition” value was 2.0. Besides, the “effects on cytochrome c reductase activity of nNOS” value at nNOS [2] is “no effects”. Further, the IC50 is 24 µM at nNOS [3], 123 µM on iNOS, 22 µM at nNOS [4] (arginine-independent) and 17 µM on eNOS. Further, the “inhibition of arginine-independent NADPH-oxidase activity of nNOS (in words)” value against nNOS [4] was “inhibited”. Also, at nNOS dimers, the “dissociation of nNOS dimers into monomers” value is listed as “did not produce a dissociation”.
For the compound “1,2:34,35:40,41-tris(methano)[60] fullerene-61, 61, 62, 62, 63, 63 hexacarboxylic acid, (trans-3, trans-3, trans-3) D3 symmetry isomer [D3-Tris malonyl adduct diacid]”, the concentration for half-maximal inhibition (IC50) was 86 µM on nNOS [3], 317 µM at iNOS and 143 µM at eNOS. Moreover, the “inhibition of arginine-independent NADPH-oxidase activity of nNOS (in words)” value against nNOS [4] is on record as “inhibited”.
Consider `Clc1ccc(C(c2ccc(Cl)cc2)n2cc[n+](CC(OCc3ccc(Cl)cc3Cl)c3ccc(Cl)cc3Cl)c2)cc1` (stereo not shown) [Calmidazolium], for which, on nNOS [5], the half-maximal inhibitory concentration (IC50) turned out to be 0.273 µM.
